# Earlier results as cited in patent publication US7193081B2, “Process for preparation of cyclic prodrugs of PMEA and PMPA” (Metabasis Therapeutics, Inc., priority 2002, dated 2007).
# How the values were obtained:
# [1] = tested on: hepatitis B; details: against hepatitis B
# [2] = tested on: HIV; details: against HIV
SMILES,antiviral activity [1],antiviral activity [2]
"Nc1ncnc2c1ncn2CCOCP(=O)(O)O [PMEA, 9-(2-phosphonylmethoxyethyl)adenine]",exhibit antiviral activity,exhibit antiviral activity
"C[C@H](Cn1cnc2c(N)ncnc21)OCP(=O)(O)O [PMPA, (R)-9-(2-phosphonyl-methoxypropyl)adenine]",exhibit antiviral activity,exhibit antiviral activity
